Source: PMC5218480 (PLoS ONE, 2017)

Tested on: MV-4-11 cells
Assay: Gene expression microarray analysis (Affymetrix PrimeView) and GSEA
Format: cell-based, human
Parameters: RFU PODN (11730768_x_at) / Fold change /veh PODN (11730768_x_at) / RFU LINC00158 (11744669_a_at) / Fold change /veh LINC00158 (11744669_a_at) / RFU DUSP10 (11751237_a_at) / Fold change /veh DUSP10 (11751237_a_at) / RFU ID3 (11757404_x_at) / Fold change /veh ID3 (11757404_x_at) / RFU PLEKHG5 (11737974_s_at) / Fold change /veh PLEKHG5 (11737974_s_at) / RFU LRRC4B (11730491_at) / Fold change /veh LRRC4B (11730491_at) / RFU GIMAP4 (11747438_a_at) / Fold change /veh GIMAP4 (11747438_a_at) / RFU KRT8 (11758183_x_at) / Fold change /veh KRT8 (11758183_x_at) / RFU CNN1 (11734310_a_at) / Fold change /veh CNN1 (11734310_a_at) / RFU VPS37D (11726825_at) / Fold change /veh VPS37D (11726825_at) / RFU C10orf10 (11716522_x_at) / Fold change /veh C10orf10 (11716522_x_at) / RFU KIR2DL2 /// KIR2DL4 /// KIR2DL5A /// KIR2DL5B /// KIR2DS1 /// KIR2DS2 /// KIR2DS3 /// KIR2DS4 /// KIR3DL3 /// KIR3DL3 /// KIR3DS1 (11738374_at) / Fold change /veh KIR2DL2 /// KIR2DL4 /// KIR2DL5A /// KIR2DL5B /// KIR2DS1 /// KIR2DS2 /// KIR2DS3 /// KIR2DS4 /// KIR3DL3 /// KIR3DL3 /// KIR3DS1 (11738374_at) / RFU C1QL1 (11718748_at) / Fold change /veh C1QL1 (11718748_at) / RFU TMPRSS4 (11747572_a_at) / Fold change /veh TMPRSS4 (11747572_a_at) / RFU HAMP (11756126_x_at) / Fold change /veh HAMP (11756126_x_at) / RFU RNFT2 (11725882_a_at) / Fold change /veh RNFT2 (11725882_a_at) / RFU NR4A2 (11747474_a_at) / Fold change /veh NR4A2 (11747474_a_at) / RFU ABCC12 (11746883_a_at) / Fold change /veh ABCC12 (11746883_a_at) / RFU TMEM136 (11760407_x_at) / Fold change /veh TMEM136 (11760407_x_at) / RFU CLDN22 /// WWC2 (11732394_at) / Fold change /veh CLDN22 /// WWC2 (11732394_at) / RFU HLA-DPB1 (11760878_x_at) / Fold change /veh HLA-DPB1 (11760878_x_at) / RFU SPINT1 (11716480_a_at) / Fold change /veh SPINT1 (11716480_a_at) / RFU GAP43 (11754022_s_at) / Fold change /veh GAP43 (11754022_s_at) / RFU A4GNT (11735810_at) / Fold change /veh A4GNT (11735810_at) / RFU PRB3 (11715151_x_at) / Fold change /veh PRB3 (11715151_x_at) / RFU TUBB4B (11761932_at) / Fold change /veh TUBB4B (11761932_at) / RFU CAPN14 (11732068_a_at) / Fold change /veh CAPN14 (11732068_a_at) / RFU TMCC2 (11721928_a_at) / Fold change /veh TMCC2 (11721928_a_at) / RFU IRGQ (11745062_a_at) / Fold change /veh IRGQ (11745062_a_at) / RFU FAM174B (11720279_a_at) / Fold change /veh FAM174B (11720279_a_at) / RFU TMPRSS4 (11748680_a_at) / Fold change /veh TMPRSS4 (11748680_a_at) / RFU FAM212B (11763350_a_at) / Fold change /veh FAM212B (11763350_a_at) / RFU PLEKHG5 (11743358_a_at) / Fold change /veh PLEKHG5 (11743358_a_at) / RFU ZSCAN30 (11745921_a_at) / Fold change /veh ZSCAN30 (11745921_a_at) / RFU CMKLR1 (11741424_a_at) / Fold change /veh CMKLR1 (11741424_a_at) / RFU LOC101060620 /// MAPK8IP1 (11723275_at) / Fold change /veh LOC101060620 /// MAPK8IP1 (11723275_at) / RFU SPTSSB (11747773_x_at) / Fold change /veh SPTSSB (11747773_x_at) / RFU PRSS12 (11739890_at) / Fold change /veh PRSS12 (11739890_at) / RFU BIN1 (11741810_x_at) / Fold change /veh BIN1 (11741810_x_at) / RFU WNT11 (11732464_a_at) / Fold change /veh WNT11 (11732464_a_at) / RFU C10orf10 (11716521_a_at) / Fold change /veh C10orf10 (11716521_a_at) / RFU C5orf56 (11738089_at) / Fold change /veh C5orf56 (11738089_at) / RFU CYB561 (11721691_x_at) / Fold change /veh CYB561 (11721691_x_at) / RFU ANKRD19P (11752326_a_at) / Fold change /veh ANKRD19P (11752326_a_at) / RFU OR2T12 /// OR2T33 /// OR2T8 (11738714_s_at) / Fold change /veh OR2T12 /// OR2T33 /// OR2T8 (11738714_s_at) / RFU VCAN (11748164_a_at) / Fold change /veh VCAN (11748164_a_at) / RFU JSRP1 (11732532_at) / Fold change /veh JSRP1 (11732532_at) / RFU KRTAP10-11 (11738290_x_at) / Fold change /veh KRTAP10-11 (11738290_x_at) / RFU MYO3A (11730013_a_at) / Fold change /veh MYO3A (11730013_a_at) / RFU EBF3 (11725865_a_at) / Fold change /veh EBF3 (11725865_a_at) / RFU CAMK2N1 (11719241_x_at) / Fold change /veh CAMK2N1 (11719241_x_at) / RFU C5orf56 (11738088_a_at) / Fold change /veh C5orf56 (11738088_a_at) / RFU OLFML3 (11715873_a_at) / Fold change /veh OLFML3 (11715873_a_at) / RFU LOC100653217 /// NTM (11731650_a_at) / Fold change /veh LOC100653217 /// NTM (11731650_a_at) / RFU MAPK11 (11762145_a_at) / Fold change /veh MAPK11 (11762145_a_at) / RFU FIZ1 (11724087_x_at) / Fold change /veh FIZ1 (11724087_x_at) / RFU OASL (11726364_x_at) / Fold change /veh OASL (11726364_x_at) / RFU SOX15 (11748057_x_at) / Fold change /veh SOX15 (11748057_x_at) / RFU CD79A (11719716_a_at) / Fold change /veh CD79A (11719716_a_at) / RFU HIST1H1D (11736915_at) / Fold change /veh HIST1H1D (11736915_at) / RFU CASKIN2 (11723855_a_at) / Fold change /veh CASKIN2 (11723855_a_at) / RFU LOC730098 (11760151_x_at) / Fold change /veh LOC730098 (11760151_x_at) / RFU OR4N2 (11742367_at) / Fold change /veh OR4N2 (11742367_at) / RFU PRRT2 (11749266_a_at) / Fold change /veh PRRT2 (11749266_a_at) / RFU SNX32 (11753110_a_at) / Fold change /veh SNX32 (11753110_a_at) / RFU CDHR5 (11726645_a_at) / Fold change /veh CDHR5 (11726645_a_at) / RFU RCAN1 (11760418_a_at) / Fold change /veh RCAN1 (11760418_a_at) / RFU FAM167A (11723789_a_at) / Fold change /veh FAM167A (11723789_a_at) / RFU FAM26E (11764081_at) / Fold change /veh FAM26E (11764081_at) / RFU ISYNA1 (11749810_s_at) / Fold change /veh ISYNA1 (11749810_s_at) / RFU ACY1 (11761880_at) / Fold change /veh ACY1 (11761880_at) / RFU 11764098_at / Fold change /veh 11764098_at / RFU SAMD14 (11745864_x_at) / Fold change /veh SAMD14 (11745864_x_at) / RFU NPB (11741838_a_at) / Fold change /veh NPB (11741838_a_at) / RFU TMPRSS6 (11731388_a_at) / Fold change /veh TMPRSS6 (11731388_a_at) / RFU KRTAP10-2 (11738614_at) / Fold change /veh KRTAP10-2 (11738614_at) / RFU ARHGAP8 /// PRR5-ARHGAP8 (11727945_x_at) / Fold change /veh ARHGAP8 /// PRR5-ARHGAP8 (11727945_x_at) / RFU KRTAP5-7 /// NADSYN1 (11734609_at) / Fold change /veh KRTAP5-7 /// NADSYN1 (11734609_at) / RFU RASL12 (11751679_a_at) / Fold change /veh RASL12 (11751679_a_at) / RFU CDKN2B (11736163_a_at) / Fold change /veh CDKN2B (11736163_a_at) / RFU PRF1 (11729649_at) / Fold change /veh PRF1 (11729649_at) / RFU, ZNF638 /// ZNF638-IT1 / Fold change vs veh, ZNF638 /// ZNF638-IT1 / RFU, PANK3 / Fold change vs veh, PANK3 / RFU, SH3YL1 / Fold change vs veh, SH3YL1 / RFU, ZEB2 / Fold change vs veh, ZEB2 / RFU, NRIP1 / Fold change vs veh, NRIP1 / RFU, PTTG1IP / Fold change vs veh, PTTG1IP / RFU, CAPN2 / Fold change vs veh, CAPN2 / RFU, MED14 / Fold change vs veh, MED14 / RFU, SNORA58 / Fold change vs veh, SNORA58 / RFU, C1orf63 / Fold change vs veh, C1orf63 / RFU, LRRFIP1 / Fold change vs veh, LRRFIP1 / RFU, NDUFAF7 / Fold change vs veh, NDUFAF7 / RFU, SLC12A2 / Fold change vs veh, SLC12A2 / RFU, IBTK / Fold change vs veh, IBTK / RFU, ESF1 / Fold change vs veh, ESF1 / Fold change vs veh, TMEM50B / RFU, TAOK1 / Fold change vs veh, TAOK1 / RFU, ACBD3 / Fold change vs veh, ACBD3 / RFU, TMA16 / Fold change vs veh, TMA16 / RFU, RWDD3 / Fold change vs veh, RWDD3 / RFU, BCAT1 / Fold change vs veh, BCAT1 / RFU, EDEM3 / Fold change vs veh, EDEM3 / RFU, TMEM33 / Fold change vs veh, TMEM33 / RFU, WDR75 / Fold change vs veh, WDR75 / RFU, AHCTF1 / Fold change vs veh, AHCTF1 / RFU, TFRC / Fold change vs veh, TFRC / RFU, ZDHHC17 / Fold change vs veh, ZDHHC17 / RFU, NOM1 / Fold change vs veh, NOM1 / RFU, ARL8B / Fold change vs veh, ARL8B / RFU, ZBTB11 / Fold change vs veh, ZBTB11 / RFU, TAMM41 / Fold change vs veh, TAMM41 / RFU, KIAA1704 /// LOC100996395 / Fold change vs veh, KIAA1704 /// LOC100996395 / RFU, ING1 / Fold change vs veh, ING1 / RFU, TRMT61B / Fold change vs veh, TRMT61B / RFU, FUBP3 / Fold change vs veh, FUBP3 / RFU, TP53 / Fold change vs veh, TP53 / RFU, TNKS2 / Fold change vs veh, TNKS2 / RFU, ZFP14 / Fold change vs veh, ZFP14 / RFU, ACTR2 / Fold change vs veh, ACTR2 / RFU, PPP3R1 / Fold change vs veh, PPP3R1 / RFU, PIK3R1 / Fold change vs veh, PIK3R1 / RFU, HNRNPA1 / Fold change vs veh, HNRNPA1 / RFU, RNF170 / Fold change vs veh, RNF170 / RFU, ZNF28 / Fold change vs veh, ZNF28 / RFU, RNGTT / Fold change vs veh, RNGTT / RFU, OGT / Fold change vs veh, OGT / RFU, BRD1 / Fold change vs veh, BRD1 / RFU, MARS / Fold change vs veh, MARS / RFU, ZNF655 / Fold change vs veh, ZNF655 / RFU, FAHD1 / Fold change vs veh, FAHD1 / RFU, BDP1 / Fold change vs veh, BDP1 / RFU, LRRCC1 / Fold change vs veh, LRRCC1 / RFU, ARID1A / Fold change vs veh, ARID1A / RFU, ZNF146 / Fold change vs veh, ZNF146 / RFU, ZNF330 / Fold change vs veh, ZNF330 / RFU, GPN3 / Fold change vs veh, GPN3 / RFU, C9orf123 / Fold change vs veh, C9orf123 / RFU, N4BP2L2 / Fold change vs veh, N4BP2L2 / RFU, ARFIP1 / Fold change vs veh, ARFIP1 / RFU, FAM179B / Fold change vs veh, FAM179B / RFU, BCL10 / Fold change vs veh, BCL10 / RFU, UHRF1BP1L / Fold change vs veh, UHRF1BP1L / RFU, BET1 / Fold change vs veh, BET1 / RFU, CNOT2 / Fold change vs veh, CNOT2 / RFU, ZNF268 / Fold change vs veh, ZNF268 / Fold change vs veh, ZNF507 / RFU, DGCR2 / Fold change vs veh, DGCR2 / RFU, WDSUB1 / Fold change vs veh, WDSUB1 / Fold change vs veh, HSP90B1 /// MIR3652 / RFU, ADSS / Fold change vs veh, ADSS / RFU, GK / Fold change vs veh, GK / RFU, ZNF148 / Fold change vs veh, ZNF148 / RFU, TAF9 / Fold change vs veh, TAF9 / RFU, SLC1A5 / Fold change vs veh, SLC1A5 / RFU, SLMO2 / Fold change vs veh, SLMO2 / RFU, ABCC4 / Fold change vs veh, ABCC4 / RFU, LOC101060439 /// RAP1B / Fold change vs veh, LOC101060439 /// RAP1B / RFU, RFX7 / Fold change vs veh, RFX7 / RFU, GTPBP10 / Fold change vs veh, GTPBP10 / RFU, CNEP1R1 / Fold change vs veh, CNEP1R1 / RFU, BIVM-ERCC5 /// ERCC5 / Fold change vs veh, BIVM-ERCC5 /// ERCC5 / RFU, ILF3 / Fold change vs veh, ILF3 / RFU 11762660_at / Fold change /veh 11762660_at / RFU VCAN (11757783_s_at) / Fold change /veh VCAN (11757783_s_at) / RFU DDX43 (11728927_at) / Fold change /veh DDX43 (11728927_at) / RFU KRT8 (11758188_x_at) / Fold change /veh KRT8 (11758188_x_at) / RFU NKD1 (11759106_at) / Fold change /veh NKD1 (11759106_at) / RFU SRD5A1 (11742802_a_at) / Fold change /veh SRD5A1 (11742802_a_at) / RFU TPSAB1 /// TPSB2 (11721975_s_at) / Fold change /veh TPSAB1 /// TPSB2 (11721975_s_at) / RFU GSTM3 (11746129_a_at) / Fold change /veh GSTM3 (11746129_a_at) / RFU IL23R (11737362_x_at) / Fold change /veh IL23R (11737362_x_at) / RFU TMEM51 (11727254_a_at) / Fold change /veh TMEM51 (11727254_a_at) / RFU PIWIL2 (11732686_x_at) / Fold change /veh PIWIL2 (11732686_x_at) / RFU ORM1 (11744905_x_at) / Fold change /veh ORM1 (11744905_x_at) / RFU CCDC152 (11743942_at) / Fold change /veh CCDC152 (11743942_at) / RFU ECM1 (11717891_a_at) / Fold change /veh ECM1 (11717891_a_at) / RFU IL23R (11748794_a_at) / Fold change /veh IL23R (11748794_a_at) / RFU TNFAIP8L3 (11732012_x_at) / Fold change /veh TNFAIP8L3 (11732012_x_at) / RFU MBOAT4 (11741988_at) / Fold change /veh MBOAT4 (11741988_at) / RFU 11764193_at / Fold change /veh 11764193_at / RFU TMEM53 (11763286_at) / Fold change /veh TMEM53 (11763286_at) / RFU MAGEB2 (11727129_at) / Fold change /veh MAGEB2 (11727129_at) / RFU TMEM200A (11744735_a_at) / Fold change /veh TMEM200A (11744735_a_at) / RFU CCDC152 (11751479_a_at) / Fold change /veh CCDC152 (11751479_a_at) / RFU FAM211A (11726209_a_at) / Fold change /veh FAM211A (11726209_a_at) / RFU RGS16 (11746705_a_at) / Fold change /veh RGS16 (11746705_a_at) / RFU VCAN (11755009_s_at) / Fold change /veh VCAN (11755009_s_at) / RFU RHOB (11743442_s_at) / Fold change /veh RHOB (11743442_s_at) / RFU RGS16 (11720943_a_at) / Fold change /veh RGS16 (11720943_a_at) / RFU RGS16 (11720944_at) / Fold change /veh RGS16 (11720944_at) / RFU, VPS4B / Fold change vs veh, VPS4B / RFU, CREB1 / Fold change vs veh, CREB1 / RFU, DNAJC13 / Fold change vs veh, DNAJC13 / RFU, GNAQ / Fold change vs veh, GNAQ / RFU, CDK5R1 / Fold change vs veh, CDK5R1 / RFU, ZRANB3 / Fold change vs veh, ZRANB3 / RFU, CUL4A / Fold change vs veh, CUL4A / RFU, CCNY / Fold change vs veh, CCNY / RFU, UFL1 / Fold change vs veh, UFL1 / RFU, COG3 / Fold change vs veh, COG3 / RFU, DIAPH2 / Fold change vs veh, DIAPH2 / RFU, SKA2 / Fold change vs veh, SKA2 / RFU, AFF3 / Fold change vs veh, AFF3 / RFU, LMF1 / Fold change vs veh, LMF1 / RFU, IPO11 / Fold change vs veh, IPO11 / RFU, DFFB / Fold change vs veh, DFFB / RFU, FOXP1 / Fold change vs veh, FOXP1 / RFU, CARD8 / Fold change vs veh, CARD8 / RFU, STRN3 / Fold change vs veh, STRN3 / RFU, ADK / Fold change vs veh, ADK / RFU, RASSF2 / Fold change vs veh, RASSF2 / RFU, WIPF1 / Fold change vs veh, WIPF1 / RFU, LARP1B / Fold change vs veh, LARP1B / RFU, RASA1 / Fold change vs veh, RASA1 / RFU, RB1 / Fold change vs veh, RB1 / RFU, PPFIA1 / Fold change vs veh, PPFIA1 / RFU, MAT2A / Fold change vs veh, MAT2A / RFU, CCT5 / Fold change vs veh, CCT5 / RFU, WDR92 / Fold change vs veh, WDR92 / RFU, CUX1 / Fold change vs veh, CUX1 / RFU, TTC7A / Fold change vs veh, TTC7A / RFU, TMEM135 / Fold change vs veh, TMEM135 / RFU, DEPTOR / Fold change vs veh, DEPTOR / RFU, CPM / Fold change vs veh, CPM / RFU, DNAJB6 / Fold change vs veh, DNAJB6 / RFU, CACNA2D3 / Fold change vs veh, CACNA2D3 / RFU, DTX4 / Fold change vs veh, DTX4 / RFU, TFCP2 / Fold change vs veh, TFCP2 / RFU, GMCL1 /// GMCL1P1 / Fold change vs veh, GMCL1 /// GMCL1P1 / RFU, AEBP2 / Fold change vs veh, AEBP2 / RFU, SNHG1 /// SNORD22 /// SNORD25 /// SNORD26 /// SNORD27 /// SNORD28 /// SNORD29 /// SNORD31 / Fold change vs veh, SNHG1 /// SNORD22 /// SNORD25 /// SNORD26 /// SNORD27 /// SNORD28 /// SNORD29 /// SNORD31 / Fold change (Aza/veh), C12orf56 (ProbeSet 11735607_a_at) / Fold change (ACY-1035/veh), C12orf56 (ProbeSet 11735607_a_at) / Fold change (Aza/veh), FGFR1OP (ProbeSet 11751329_s_at) / Fold change (ACY-1035/veh), FGFR1OP (ProbeSet 11751329_s_at) / Fold change (Aza/veh), VPS36 (ProbeSet 11739960_a_at) / Fold change (ACY-1035/veh), VPS36 (ProbeSet 11739960_a_at) / RFU SYPL1 (11715823_x_at) / Fold change /veh SYPL1 (11715823_x_at) / RFU IGFBP7 (11715501_s_at) / Fold change /veh IGFBP7 (11715501_s_at) / RFU REEP3 (11722064_at) / Fold change /veh REEP3 (11722064_at) / RFU IGLL1 (11728026_x_at) / Fold change /veh IGLL1 (11728026_x_at): dose or concentration left out as unconfirmed
Details: MV-4-11 cells, 48 hours

Nc1ccc(-c2cccs2)cc1NC(=O)c1ccc2c(c1)cc(C1CC1)n2CCN1CCOCC1 [ACY-1035]
RFU RGS16 (11746705_a_at): 52.79 RFU
